Source: patent publication US10471029B2, “Methods for treating neurological disorders” (Alzheon, Inc., priority 2014, dated 2019)
Like-named read-outs stand apart in the source and are kept apart here.

What was measured:
[1] = Tolerability of Val-APS prodrug over tramiprosate; format: in vivo
[2] = Plasma and brain exposure of tramiprosate after oral Val-APS or tramiprosate in animals (FIG. 4); format: in vivo; details: Val-APS prodrug versus tramiprosate
From the text: L-Valyl-3-aminopropanesulfonate (Val-APS) is an orally available small molecule prodrug of tramiprosate with improved pharmaceutical properties. Tramiprosate was advanced to a ˜2,000 patient Phase 3 program which completed in 2007. […] Thus the present disclosure provides for administration of certain compounds including val-APS to ApoE4-positive patients for the treatment of Alzheimer's Disease.
The AUC ratio of brain tramiprosate exposure due to Val-APS compared to tramiprosate is ˜2.1.

[3] = human, in vivo
[4] = system: Alzheimer's Disease patients; assay: CDR-SB (function) in ApoE4+ subjects (FIG. 3); format: in vivo, human; details: through 18 months, 150 mg BID, n=183, on top of acetylcholinesterase inhibitors and/or memantine
[5] = system: Alzheimer's Disease patients; assay: ADAS-Cog score following treatment of Alzheimer's Disease patients with tramiprosate, retrospective subgroup analysis in 599 ApoE4+ subjects (FIGS. 1-2); format: in vivo, human; details: through 18 months, 150 mg BID, n=183, on top of acetylcholinesterase inhibitors and/or memantine
Procedure: FIG. 1 illustrates reduced ADAS-Cog score following treatment of Alzheimer's Disease patients with tramiprosate. At 26 weeks−1.25 (82%) P=0.0219 for 100 mg BID, −1.03 (57%), P=0.118 for 150 mg BID. At 52 weeks−2.03 (35%) P=0.002 for 100 mg BID, −1.85 (32%), P=0.006 for 150 mg BID. At 65 weeks−1.52 (22%) P=0.024 for 100 mg BID, −1.90 (27%) P=0.005 for 150 mg BID. At 78 weeks−1.90 (27%) P=0.005 for 100 mg BID, −1.86 (21%) P=0.028 for 150 mg BID. (n=599). Data derived from Caltagirone et al., “The potential protective effect of tramiprosate (homotaurine) against Alzheimer's disease: a review,” Aging Clin Exp Res. 2012 December; 24(6):580-7.
In certain embodiments, the efficacy of a compound may be determined through the ADAS-cog (Alzheimer's Disease Assessment Scale-cognitive subscale). ADAS was designed to measure the severity of the most important symptoms of Alzheimer's disease (AD). Its subscale ADAS-cog is the most popular cognitive testing instrument used in clinical trials of nootropics. It consists of 11 tasks measuring the disturbances of memory, language, praxis, attention and other cognitive abilities which are often referred to as the core symptoms of AD. The ADAS-Cog helps evaluate cognition and differentiates between normal cognitive functioning and impaired cognitive functioning. […]

[6] = system: Alzheimer's Disease patients; details: n=599, cited from earlier work
[7] = system: Alzheimer's Disease patients; assay: Change in ADAS-Cog by ApoE status in North American Trial; format: in vivo, human; details: for Change in ADAS-Cog Slope vs placebo / Change in ADAS-Cog Week 78: North American Trial
From the text: (§1) In certain embodiments, the efficacy of a compound may be determined through the ADAS-cog (Alzheimer's Disease Assessment Scale-cognitive subscale). ADAS was designed to measure the severity of the most important symptoms of Alzheimer's disease (AD). Its subscale ADAS-cog is the most popular cognitive testing instrument used in clinical trials of nootropics. It consists of 11 tasks measuring the disturbances of memory, language, praxis, attention and other cognitive abilities which are often referred to as the core symptoms of AD. The ADAS-Cog helps evaluate cognition and differentiates between normal cognitive functioning and impaired cognitive functioning. It is especially useful for determining the extent of cognitive decline and can help evaluate which stage of Alzheimer's disease a person is in, based on their answers and score. The ADAS-Cog can be used in clinical trials in order to determine incremental improvements or declines in cognitive functioning.
(§2) Patients were administered 3APS at 150 mg BID and 100 mg BID or were provided a placebo. ADAS-Cog results were measured. The data establish that the decline in score is delayed by 3APS. At 13 weeks a small improvement in ADAS-cog was observed. Over time, the difference increased.
Patients were administered 3APS and ADAS-Cog results were obtained at various timepoints. Patients were then genotyped to detect the presence of ApoE4 alleles. FIG. 8 illustrates the advantageous effects of tramiprosate, the active agent of Val-APS, in certain sub-populations segregated based on Apo E4 status. […] Data is presented at 13 weeks, 26 weeks, 39 weeks, 52 weeks, 65 weeks, and 78 weeks. […] ApoE4 prevalence correlates with improved cognition scores.

[8] = system: Alzheimer's Disease patients; assay: ADAS-Cog by ApoE4 subgroup in merged dataset; format: in vivo, human; details: for Change in ADAS-Cog Slope vs placebo / Change in ADAS-Cog Week 78 / ADAS-Cog Slope vs placebo / ADAS-Cog Week 78: merged dataset; for Change in ADAS-Cog Slope vs placebo / Change in ADAS-Cog Week 78: <80 years old
From the text: as §1, §2

For CC(C)[C@H](N)C(=O)NCCCS(=O)(=O)O [Val-APS, L-Valyl-3-aminopropanesulfonate], the GI tolerability [1] was “improved”, the “nausea & vomiting” value [1] was “reduced” and the “accumulation in the brain” value [2] was “improved”. For the same compound, the “formation of metabolite NRM5074” value [3] was “reduced”, the “inter-subject PK variability” value [3] was “decreased” and the t½ [3] was 14.9 ±3.9.

For NCCCS(=O)(=O)O [Compound 3APS, 3-amino-1-propanesulfonic acid], the “function (CDR-SB)” value [4] is listed as “clinically meaningful improvement”, the “cognition (ADAS-cog)” value [5] is listed as “clinically meaningful improvement” and the “ADAS-Cog score, percent in brackets” value ([6]; 26 weeks, 100 mg BID) is listed as 82%. The ADAS-Cog score ([6]; 26 weeks, 150 mg BID) was −1.03, the “ADAS-Cog score, percent in brackets” value ([6]; 26 weeks, 150 mg BID) was 57% and the “ADAS-Cog score, percent in brackets” value ([6]; 52 weeks, 100 mg BID) was 35%. For the same compound, the ADAS-Cog score ([6]; 52 weeks, 150 mg BID) was −1.85, the “ADAS-Cog score, percent in brackets” value ([6]; 52 weeks, 150 mg BID) was 32% and the “ADAS-Cog score, percent in brackets” value ([6]; 65 weeks, 100 mg BID) was 22%. For the same compound, the ADAS-Cog score ([6]; 65 weeks, 150 mg BID) was −1.90, the “ADAS-Cog score, percent in brackets” value ([6]; 65 weeks, 150 mg BID) was 27% and the ADAS-Cog score ([6]; 78 weeks, 100 mg BID) was −1.90. The “ADAS-Cog score, percent in brackets” value ([6]; 78 weeks, 100 mg BID) was 27%, the ADAS-Cog score ([6]; 78 weeks, 150 mg BID) was −1.86 and the “ADAS-Cog score, percent in brackets” value ([6]; 78 weeks, 150 mg BID) was 21%. For the same compound, the “Change in ADAS-Cog Slope vs placebo” value ([7]; ApoE4+ and ++, 100 mg BID) was −1.43, the “Change in ADAS-Cog Week 78” value ([7]; ApoE4+ and ++, 100 mg BID) was −0.81 and the “Change in ADAS-Cog Slope vs placebo” value ([7]; ApoE4+ and ++, 150 mg BID) was −7.49. The “Change in ADAS-Cog Week 78” value ([7]; ApoE4+ and ++, 150 mg BID) was −1.67, the “Change in ADAS-Cog Slope vs placebo” value ([7]; ApoE4++, 100 mg BID) was −4.33 and the “Change in ADAS-Cog Week 78” value ([7]; ApoE4++, 100 mg BID) was −1.49. For the same compound, the “Change in ADAS-Cog Slope vs placebo” value ([7]; ApoE4++, 150 mg BID) was −19.79, the “Change in ADAS-Cog Week 78” value ([7]; ApoE4++, 150 mg BID) was −4.63 and the “Change in ADAS-Cog Slope vs placebo” value ([7]; ApoE4−, 100 mg BID) was −2.04. For the same compound, the “Change in ADAS-Cog Week 78” value ([7]; ApoE4−, 100 mg BID) was −1.23, the “Change in ADAS-Cog Slope vs placebo” value ([7]; ApoE4−, 150 mg BID) was 3.57 and the “Change in ADAS-Cog Week 78” value ([7]; ApoE4−, 150 mg BID) was 0.59. For the same compound, the “Change in ADAS-Cog Slope vs placebo” value ([7]; Total, 100 mg BID) was −1.75, the “Change in ADAS-Cog Week 78” value ([7]; Total, 100 mg BID) was −0.93 and the “Change in ADAS-Cog Slope vs placebo” value ([7]; Total, 150 mg BID) was −3.32. For the same compound, the “Change in ADAS-Cog Week 78” value ([7]; Total, 150 mg BID) was −0.83, the “improvement versus placebo on cognition” value ([7]; homozygous ApoE4 subjects, 150 mg BID, n=34) was 4 point and the “improvement versus placebo on the ADAS-cog” value ([7]; homozygous ApoE4 subjects, 150 mg BID, n=34, after 18 months of treatment) was 4.62 points. The “decline in ADAS-Cog score” value ([8]; 150 mg BID and 100 mg BID versus placebo) was “delayed”, the “Change in ADAS-Cog Slope vs placebo” value ([8]; ApoE4+, 100 mg BID) was −3.92 and the “Change in ADAS-Cog Week 78” value ([8]; ApoE4+, 100 mg BID) was −1.13. The “Change in ADAS-Cog Slope vs placebo” value ([8]; ApoE4+, 150 mg BID) was −8.65, the “Change in ADAS-Cog Week 78” value ([8]; ApoE4+, 150 mg BID) was −2.17 and the “Change in ADAS-Cog Slope vs placebo” value ([8]; ApoE4−, 100 mg BID) was −4.40. The “Change in ADAS-Cog Week 78” value ([8]; ApoE4−, 100 mg BID) was −2.54, the “Change in ADAS-Cog Slope vs placebo” value ([8]; ApoE4−, 150 mg BID) was −2.81 and the “Change in ADAS-Cog Week 78” value ([8]; ApoE4−, 150 mg BID) was −0.93. For the same compound, the “Change in ADAS-Cog Slope vs placebo” value ([8]; Total, 100 mg BID) was −3.94, the “Change in ADAS-Cog Week 78” value ([8]; Total, 100 mg BID) was −1.55 and the “Change in ADAS-Cog Slope vs placebo” value ([8]; Total, 150 mg BID) was −6.37. The “Change in ADAS-Cog Week 78” value ([8]; Total, 150 mg BID) was −1.66, the “ADAS-Cog Slope vs placebo” value ([8]; ApoE4+, 100 mg BID) was −3.61 and the “ADAS-Cog Week 78” value ([8]; ApoE4+, 100 mg BID) was −1.09. For the same compound, the “ADAS-Cog Slope vs placebo” value ([8]; ApoE4+, 150 mg BID) was −7.09, the “ADAS-Cog Week 78” value ([8]; ApoE4+, 150 mg BID) was −1.73 and the “ADAS-Cog Slope vs placebo” value ([8]; ApoE4−, 100 mg BID) was −2.45. The “ADAS-Cog Week 78” value ([8]; ApoE4−, 100 mg BID) was −1.92, the “ADAS-Cog Slope vs placebo” value ([8]; ApoE4−, 150 mg BID) was 0.35 and the “ADAS-Cog Week 78” value ([8]; ApoE4−, 150 mg BID) was −0.66. The “ADAS-Cog Slope vs placebo” value ([8]; Total, 100 mg BID) was −3.18, the “ADAS-Cog Week 78” value ([8]; Total, 100 mg BID) was −1.34 and the “ADAS-Cog Slope vs placebo” value ([8]; Total, 150 mg BID) was −4.19. The “ADAS-Cog Week 78” value ([8]; Total, 150 mg BID) was −1.27.
